Among the test systems are COLO 205 colon; UO-31 renal; BT-549 breast; PC-3 prostate; HOP-92 NSCLC; SW-620 colon; A498 renal; NCI-H23 lung; TK-10 renal; KM12 colon.
Holding throughout (assay): growth of human tumour cells (NCI), 48 h

Values joined by “and” are separate entries in the source; they are usually repeats but may differ in a detail not shown here. Equal values may be shown once.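 48-hour exposure; five concentrations; linearly interpolated endpoints. At the GI50, growth is halved. TGI marks complete inhibition of growth.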

Take `C=C1C(=O)O[C@H]2[C@H]1CC/C(COC(=O)/C=C\C(=O)NCc1ccc(Cn3c(=O)sn(CCI)c3=O)cc1)=C\CC[C@@]1(C)O[C@@H]21`: the GI50 in the test on COLO 205 colon is 2060 nM; in the test with UO-31 renal, 2560 nM; in the test on BT-549 breast it was 10700 nM; with PC-3 prostate it was 7370 nM; in the test with HOP-92 NSCLC it was 2050 nM; with SW-620 colon, 1920 nM. The GI50 with A498 renal is 13900 nM; in the test on NCI-H23 lung, 3.34 µM; in the test on TK-10 renal it was 2090 nM; in the test on KM12 colon, 11500 nM. In addition, the TGI in the test on COLO 205 colon is 3690 nM; with UO-31 renal, 8.47 µM; with BT-549 breast, 22.6 µM; in the test on PC-3 prostate, 21.5 µM; in the test with HOP-92 NSCLC it was 4.6 µM; in the test on SW-620 colon, 3.75 µM. For the same molecule, the TGI was 27 µM in the test with A498 renal, 11.8 µM in the test on NCI-H23 lung, 4.35 µM in the test with TK-10 renal and 24.5 µM with KM12 colon.
`CCN(CC)c1ccc(-c2cc(-c3cc(OC)c(OC)c(OC)c3)nc(N3CCC(O)CC3)c2C#N)cc1`: the GI50 in the test with COLO 205 colon was 488 nM; in the test with UO-31 renal, 274 nM; in the test with BT-549 breast, 911 nM; in the test with PC-3 prostate, 713 nM; with HOP-92 NSCLC, 215 nM; in the test on SW-620 colon, 448 nM. For the same molecule, the GI50 in the test with A498 renal is 1070 nM; with NCI-H23 lung, 0.87 µM; in the test with TK-10 renal, 1100 nM; in the test on KM12 colon, 512 nM. Further, the TGI in the test with COLO 205 colon was 2110 nM; in the test on UO-31 renal it was 1.82 µM; with BT-549 breast, 3.89 µM; in the test on PC-3 prostate it was over 100 µM; with HOP-92 NSCLC it was 0.689 µM; in the test on SW-620 colon, 12.7 µM. The TGI in the test on A498 renal was 14.2 µM; in the test with NCI-H23 lung, 4.68 µM; in the test on TK-10 renal, 6.92 µM; in the test with KM12 colon, 2.98 µM.
On to `CCCc1nc(Cl)c(Cl)c(Cl)n1`, for which the TGI in the test with COLO 205 colon was over 100000 nM; in the test on UO-31 renal, 5.61 µM; in the test on BT-549 breast, 77.9 µM; in the test with PC-3 prostate it was over 100 µM; in the test with HOP-92 NSCLC, over 61.7 µM; in the test with SW-620 colon, over 52.2 µM. Also, the TGI in the test on A498 renal, in the test with NCI-H23 lung, with TK-10 renal and in the test on KM12 colon was over 100 µM throughout.
Consider `O=C1NC2(CCCCC2)C(=O)N1CCN(CCCl)CCCl`, for which the GI50 in the test with COLO 205 colon is over 25000 nM; in the test on UO-31 renal, over 25000 nM; in the test on HOP-92 NSCLC, > 25000 nM and 22900 nM; in the test on SW-620 colon it was over 25000 nM; in the test with A498 renal it was over 25000 nM; in the test with NCI-H23 lung, 24.8 µM. The GI50 with KM12 colon is over 25000 nM. The TGI was over 250000 nM with COLO 205 colon; over 250 µM in the test on UO-31 renal; over 25 µM with BT-549 breast; over 25 µM with PC-3 prostate; > 25 µM and 48.3 µM in the test with HOP-92 NSCLC; > 25 µM and 150 µM in the test on SW-620 colon. Moreover, the TGI in the test with A498 renal was over 250 µM; in the test with TK-10 renal, over 25 µM; in the test on KM12 colon, over 194 µM.
As for `Cc1ccc(Cl)c(NS(=O)(=O)c2ccc(-c3cnc(C4CC4)o3)cc2)c1`, the GI50 with COLO 205 colon was 154 nM; in the test on UO-31 renal, 275 nM; in the test on BT-549 breast, 299 nM; in the test with PC-3 prostate, 77 nM; in the test with HOP-92 NSCLC, 2300 nM; in the test on SW-620 colon, 52.8 nM. The GI50 with A498 renal is 28.6 nM; with NCI-H23 lung, 0.365 µM; in the test with TK-10 renal, 16000 nM; in the test with KM12 colon, 70 nM. Also, the TGI was 1360 nM with COLO 205 colon; over 100 µM with UO-31 renal; 14.8 µM in the test on BT-549 breast; over 68.6 µM in the test on PC-3 prostate; 20.5 µM in the test on HOP-92 NSCLC; over 100 µM in the test on SW-620 colon. For the same molecule, the TGI in the test with A498 renal was 0.303 µM; in the test on NCI-H23 lung it was 62.8 µM; with TK-10 renal, over 89.7 µM; in the test on KM12 colon it was 22.4 µM.
Regarding `Nc1ncc(-c2ccc3ncnc(N4CCc5ccc(Cl)cc54)c3c2)cc1C(F)(F)F`, the GI50 was 3680 nM with COLO 205 colon; 254 nM with UO-31 renal; 1820 nM in the test on BT-549 breast; 840 nM with PC-3 prostate; 137 nM with HOP-92 NSCLC; 3550 nM in the test on SW-620 colon. Besides, the GI50 was 301 nM in the test on A498 renal, 3.79 µM in the test on NCI-H23 lung, 1360 nM in the test on TK-10 renal and 2480 nM in the test with KM12 colon. In addition, the TGI came out at 30500 nM in the test on COLO 205 colon; 4.62 µM in the test on UO-31 renal; 17.2 µM with BT-549 breast; 16 µM in the test on PC-3 prostate; 6.41 µM in the test on HOP-92 NSCLC; 37.3 µM in the test with SW-620 colon. Further, the TGI in the test on A498 renal came out at 2.52 µM; in the test on NCI-H23 lung it was 29.4 µM; with TK-10 renal, 11 µM; in the test on KM12 colon, 48.3 µM.
On to `C#CC1(O)C(COP(=O)(O)OCC2OC(n3cc(F)c(=O)[nH]c3=O)CC2O)OC(n2ccc(N)nc2=O)C1O` (stereo not given), for which the GI50 in the test with COLO 205 colon was under 10 nM; in the test on UO-31 renal it was under 10 nM; in the test with BT-549 breast it was under 19 nM; in the test with PC-3 prostate it was under 30.5 nM; in the test on HOP-92 NSCLC it was 196 nM; in the test with SW-620 colon it was under 10 nM. The GI50 is under 13.4 nM in the test on A498 renal, under 0.0139 µM in the test on NCI-H23 lung, 10 nM in the test with TK-10 renal and under 10 nM in the test with KM12 colon. Besides, the TGI with COLO 205 colon is 960 nM; in the test on UO-31 renal, over 100 µM; in the test with BT-549 breast, 2.52 µM; in the test on PC-3 prostate, over 69 µM; with HOP-92 NSCLC, over 46.4 µM; with SW-620 colon, over 100 µM. The values for the TGI in the test on A498 renal, in the test on NCI-H23 lung and in the test on KM12 colon were 0.199 µM, 0.449 µM and over 23.8 µM, respectively.

For the origin of these results see PubChem BioAssay (NCI).
